{"source": "paper PMC8277899", "about": "“A novel RyR1-selective inhibitor prevents and rescues sudden death in mouse models of malignant hyperthermia and heat stroke” (Nature Communications, 2021)", "key": {"R163C mice": {"test_system": "R163C mice", "format": "in vivo, mouse"}, "[1]": {"test_system": "soleus muscles from WT mice", "experiment": "Muscle force in vitro, soleus from WT mice (heat contracture, twitch, tetanus)", "format": "cell-based, mouse", "set-up": "stress (stress-frequency relationship): unit not given beside the values", "description": "Muscle contraction measurement was assessed using intact soleus muscle as follows. WT and R2509C mice (8- to 20-week old) were anesthetized with an i.p. injection of sodium pentobarbital (70 mg/kg body weight) and the soleus muscles were dissected. The isolated muscles were mounted between a force transducer (UL-100; Minebea Co., Tokyo, Japan) and a fixed hook in a chamber containing Krebs solution (140 mmol/L NaCl, 5 mmol/L KCl, 2 mmol/L CaCl2, 1 mmol/L MgCl2, 1 mmol/L NaH2PO4, 25 mmol/L NaHCO3, and 11 mmol/L glucose) bubbled with 95% O2 and 5% CO2 at 25 °C. The muscle force was recorded and analyzed by LabChart v6 (AdInstruments, Dunedin, New Zealand). The muscles were stretched to determine the length which produced maximum twitch contraction in response to field stimulation for 1 msec at supramaximal voltage. For caffeine contracture studies, muscles were exposed for 2 min to Krebs solution containing 10, 15, or 20 mM caffeine. For heat-induced contracture studies, muscles were exposed to Krebs solution warmed at 27, 35, 40, and 42 °C until basal force peaked. For twitch and tetanic contraction measurements, muscles were stimulated at 1 min intervals with 20 trains of 1, 2, 5, 10, 20, 50, 100, and 200 Hz pulses. For Cpd1 treatment, muscles were incubated with Krebs solution containing 3 µM Cpd1 15 min prior to measurements. Absolute contractile force was normalized to the maximum diameter of the muscle."}, "RyR1 channel": {"test_system": "RyR1 channel", "set-up": "method as in PMID 31299492", "settings": "HEK293 cell-based assay; read-out: IC50 for inhibiting the RyR1 channel; cited from earlier work"}, "G2435R FDB fibers": {"test_system": "G2435R FDB fibers", "experiment": "Mn2+ quench assay in FDB fibers from G2435R mice", "format": "cell-based, mouse", "settings": "10 µM", "description": "WT and mutant mice (R2509C, 8- to 20-week old; R163C, 12- to 16-week old, and G2435R, 12- to 16-week old) were euthanized and flexor digitorum brevis (FDB) muscles were dissected and incubated with 2 mg/mL collagenase (Worthington Biochemical Co., NJ, USA) in the HEPES-Krebs solution containing 2 mg/mL bovine serum albumin for 2–3 h at 37 °C. Following incubation, single cells were separated by gentle trituration in collagenase-free HEPES-Krebs solution. Isolated single FDB cells were seeded on a laminin-coated cover slip of the 35 mm glass-bottom dish or on 96 well plate coated with Cultrex basement membrane matrix (Trevigen, Minneapolis, USA).\nAssays were carried out as follows[38]: 5 µM of fura2-AM dye (Thermo Fisher Scientific) dissolved in mammalian Ringer solution (133 mM NaCl, 5 mM KCl, 1 mM MgSO4, 25 mM HEPES, 5.5 mM glucose, 2 mM CaCl2, pH 7.4) was loaded into dissociated WT and homozygous G2435R FDB fibers in 96 well plates for 30 min at 37 °C, 5% CO2. […] Fura-2 was illuminated at its isosbestic wavelength (360 nm) with the X-Cite 120 metal halide light source (Exfo, Ontario, Canada) and fluorescence emission at 510 nm was recorded using a 10 ×0.3na objective. […] The fluorescence signals were plotted as fluorescence arbitrary units (f.a.u.) over time. […]"}, "[2]": {"experiment": "Pharmacokinetics after i.p. administration in mice", "format": "in vivo, mouse", "settings": "8-times injection of 1 mg/kg at 10 min intervals"}, "mice": {"test_system": "mice", "experiment": "Observation of side effects in mice", "format": "in vivo, mouse"}}, "note": "Values joined by “and” are separate entries in the source; they are usually repeats but may differ in a detail not shown here. Equal entries are not always repeated. Where two headings read alike, the source gives them in different places."}
{"compound": "CCCCCCCCn1cc(C(=O)O)c(=O)c2cc3c(cc21)OCO3", "note": "[Cpd1, 6,7-(methylenedioxy)-1-octyl-4-quinolone-3-carboxylic acid]", "values": [{"measurement": "survival curve status code of one mouse after isoflurane anesthesia (code not defined)", "setting": "R163C mice; 2.5 mg/kg, at 11 minutes", "value": 1}, {"measurement": "survival curve status code of one mouse after isoflurane anesthesia (code not defined)", "setting": "R163C mice; 2.5 mg/kg, at 12 minutes", "value": 1}, {"measurement": "survival curve status code of one mouse after isoflurane anesthesia (code not defined)", "setting": "R163C mice; 2.5 mg/kg, at 13 minutes", "value": 1}, {"measurement": "survival curve status code of one mouse after isoflurane anesthesia (code not defined)", "setting": "R163C mice; 2.5 mg/kg, at 14 minutes", "value": 1}, {"measurement": "survival curve status code of one mouse after isoflurane anesthesia (code not defined)", "setting": "R163C mice; 5 mg/kg, at 12 minutes", "value": 1}, {"measurement": "survival curve status code of one mouse after isoflurane anesthesia (code not defined)", "setting": "R163C mice; 5 mg/kg, at 15 minutes", "value": 1}, {"measurement": "survival curve status code of one mouse after isoflurane anesthesia (code not defined)", "setting": "R163C mice; 5 mg/kg, at 30 minutes", "value": 0}, {"measurement": "rescue effect on [Ca2+]i during MH crisis", "setting": "R163C mice; 10 mg/kg 15 min after induction of isoflurane anesthesia", "value": "rapidly decreased [Ca^2+]i to the levels measured in WT muscle"}, {"measurement": "survival curve status code of one mouse after isoflurane anesthesia (code not defined)", "setting": "R163C mice; 10 mg/kg, at 30 minutes", "value": 0}, {"measurement": "effect on MH episode and death under isoflurane", "setting": "R163C mice; pretreatment at doses of 5 and 10 mg/kg", "value": "effectively prevented the MH episode and death"}, {"measurement": "twitch tension", "setting": "[1]; 3 μM Cpd1", "value": "0.08926 and 0.06376 and 0.0706 and 0.1008 and 0.09044"}, {"measurement": "stress (stress-frequency relationship)", "setting": "[1]; 3 μM Cpd1, 1 Hz", "value": "0.07934 and 0.05313 and 0.0706 and 0.09238 and 0.1028"}, {"measurement": "stress (stress-frequency relationship)", "setting": "[1]; 3 μM Cpd1, 2 Hz", "value": "0.07934 and 0.05313 and 0.0706 and 0.09238 and 0.1028"}, {"measurement": "stress (stress-frequency relationship)", "setting": "[1]; 3 μM Cpd1, 10 Hz", "value": "0.08926 and 0.05313 and 0.0706 and 0.09238 and 0.09866"}, {"measurement": "stress (stress-frequency relationship)", "setting": "[1]; 3 μM Cpd1, 50 Hz", "value": "0.7934 and 0.7651 and 0.5531 and 0.7307 and 0.4851"}, {"measurement": "IC50", "setting": "RyR1 channel", "value": 12, "unit": "nM"}, {"measurement": "Mn2+ quench rate", "setting": "G2435R FDB fibers", "value": "the same as that in untreated WT fibers"}, {"measurement": "plasma concentration", "setting": "[2]; female, 10 min", "value": "70 ng/mL and 90 ng/mL"}, {"measurement": "plasma concentration", "setting": "[2]; male, 5 min", "value": "610 ng/mL and 360 ng/mL"}, {"measurement": "side effects", "setting": "mice", "value": "no apparent side effects of Cpd1 other"}]}
